This assay addresses AKT1 (PKBα) (Homo sapiens (Human), UniProt P31749). The conditions noted are these: read-out: In vitro PKBα Mean IC50; AKT1/PKBα active enzyme; values marked * tested once only.

Chain of AKT1 (PKBα) (P31749 whole entry): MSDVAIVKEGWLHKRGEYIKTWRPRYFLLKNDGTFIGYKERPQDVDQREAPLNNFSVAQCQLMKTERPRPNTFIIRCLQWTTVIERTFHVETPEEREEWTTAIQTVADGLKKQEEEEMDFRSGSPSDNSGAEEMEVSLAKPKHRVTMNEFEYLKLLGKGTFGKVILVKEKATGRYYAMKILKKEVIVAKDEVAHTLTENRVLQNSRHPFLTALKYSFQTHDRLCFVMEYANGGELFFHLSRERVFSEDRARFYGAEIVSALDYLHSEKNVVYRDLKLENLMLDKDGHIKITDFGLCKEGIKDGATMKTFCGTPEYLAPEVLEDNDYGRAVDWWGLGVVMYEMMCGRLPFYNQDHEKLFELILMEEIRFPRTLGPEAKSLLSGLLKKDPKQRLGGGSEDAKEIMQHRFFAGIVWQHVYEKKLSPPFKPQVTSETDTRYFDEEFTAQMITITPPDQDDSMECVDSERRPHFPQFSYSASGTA

With `C[C@H](NC(=O)C1(N)CCN(c2ncnc3[nH]ccc23)CC1)c1ccc(C#N)cc1` [Example 39, 4-amino-N-[(1S)-1-(4-cyanophenyl)ethyl]-1-(7H-pyrrolo[2,3-d]pyrimidin-4-yl)piperidine-4-carboxamide], the IC50 came to 50 nM.

For the origin of these results see US10654855B2 (priority 2007, dated 2020).
